Experiment [1] addresses Dual specificity tyrosine-phosphorylation-regulated kinase 1A (Homo sapiens, UniProt Q13627).
Experiment [2] concerns the target Cyclin-dependent kinase 5 (Homo sapiens, UniProt Q00535).
The next experiment has as its target Casein kinase I. It is filed as protein assay, Homo sapiens.
Experiment [3] concerns the target T1, Dual specificity tyrosine-phosphorylation-regulated kinase 4 (Homo sapiens, UniProt Q9NR20).
T1 sequence (Q9NR20 whole entry): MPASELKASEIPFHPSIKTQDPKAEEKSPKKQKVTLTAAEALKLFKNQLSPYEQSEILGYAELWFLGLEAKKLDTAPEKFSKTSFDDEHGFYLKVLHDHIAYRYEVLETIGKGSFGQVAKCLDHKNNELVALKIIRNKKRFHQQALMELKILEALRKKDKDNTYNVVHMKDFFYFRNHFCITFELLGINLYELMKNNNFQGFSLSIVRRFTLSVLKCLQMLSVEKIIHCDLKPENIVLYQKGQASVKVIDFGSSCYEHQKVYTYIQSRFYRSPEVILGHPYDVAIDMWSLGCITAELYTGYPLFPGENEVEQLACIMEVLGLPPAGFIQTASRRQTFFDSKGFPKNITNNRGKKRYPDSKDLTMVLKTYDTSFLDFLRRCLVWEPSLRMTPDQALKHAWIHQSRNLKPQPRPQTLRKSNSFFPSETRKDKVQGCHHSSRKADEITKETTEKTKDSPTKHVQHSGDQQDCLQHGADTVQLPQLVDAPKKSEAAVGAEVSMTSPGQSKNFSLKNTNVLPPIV

For experiment [4], the target named is Glycogen synthase kinase-3 (Homo sapiens, UniProt P49840+P49841). The experiment is classed as protein assay.
For experiment [5], the target named is Dual specificity protein kinase CLK3 (Homo sapiens, UniProt P49761).
Experiment [6] addresses T2, Dual specificity tyrosine-phosphorylation-regulated kinase 3 (Homo sapiens, UniProt O43781).
T2 sequence (O43781 whole entry): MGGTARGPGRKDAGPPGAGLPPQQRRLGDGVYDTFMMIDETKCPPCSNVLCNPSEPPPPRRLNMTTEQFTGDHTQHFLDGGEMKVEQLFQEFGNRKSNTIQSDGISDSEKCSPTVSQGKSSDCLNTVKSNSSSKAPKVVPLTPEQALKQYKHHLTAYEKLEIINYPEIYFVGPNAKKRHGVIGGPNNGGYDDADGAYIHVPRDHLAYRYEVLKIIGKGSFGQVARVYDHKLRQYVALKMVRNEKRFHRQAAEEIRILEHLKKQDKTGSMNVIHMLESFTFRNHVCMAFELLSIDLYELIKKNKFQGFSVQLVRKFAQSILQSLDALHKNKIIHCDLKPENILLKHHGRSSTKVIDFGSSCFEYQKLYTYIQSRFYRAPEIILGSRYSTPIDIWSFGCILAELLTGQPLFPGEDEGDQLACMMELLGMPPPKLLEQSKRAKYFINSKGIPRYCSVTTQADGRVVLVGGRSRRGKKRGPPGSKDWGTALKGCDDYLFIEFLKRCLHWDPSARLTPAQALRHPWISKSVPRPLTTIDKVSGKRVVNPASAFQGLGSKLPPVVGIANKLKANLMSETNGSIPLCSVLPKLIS

Experiment [7] deals with Dual specificity protein kinase CLK4 (Homo sapiens, UniProt Q9HAZ1).
Experiment [8] has as its target Dual specificity protein kinase CLK2 (Homo sapiens, UniProt P49760).
Experiment [9] concerns the target T3, Dual specificity tyrosine-phosphorylation-regulated kinase 2 (Homo sapiens, UniProt Q92630).
T3 sequence (Q92630 whole entry): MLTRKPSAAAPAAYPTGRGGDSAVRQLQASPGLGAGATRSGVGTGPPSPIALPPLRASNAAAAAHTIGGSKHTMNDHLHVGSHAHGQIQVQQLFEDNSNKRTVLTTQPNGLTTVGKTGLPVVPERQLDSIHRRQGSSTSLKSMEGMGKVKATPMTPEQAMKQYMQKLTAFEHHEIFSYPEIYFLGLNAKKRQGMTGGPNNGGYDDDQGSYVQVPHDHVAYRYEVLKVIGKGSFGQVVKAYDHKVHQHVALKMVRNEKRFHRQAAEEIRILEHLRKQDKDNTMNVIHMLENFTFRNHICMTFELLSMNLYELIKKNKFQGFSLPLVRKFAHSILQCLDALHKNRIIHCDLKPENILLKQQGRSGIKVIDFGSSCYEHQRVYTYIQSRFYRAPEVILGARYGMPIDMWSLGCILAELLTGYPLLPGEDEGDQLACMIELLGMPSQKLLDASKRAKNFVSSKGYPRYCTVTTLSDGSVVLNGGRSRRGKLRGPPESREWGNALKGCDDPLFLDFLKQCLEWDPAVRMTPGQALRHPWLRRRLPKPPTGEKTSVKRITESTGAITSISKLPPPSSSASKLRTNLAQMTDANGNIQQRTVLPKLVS

The target in experiment [10] is Dual specificity protein kinase CLK1 (Homo sapiens, UniProt P49759).
Experiment [11] concerns the target Dual specificity tyrosine-phosphorylation-regulated kinase 1B (Homo sapiens, UniProt Q9Y463).

Chain of Dual specificity protein kinase CLK3 (P49761 whole entry): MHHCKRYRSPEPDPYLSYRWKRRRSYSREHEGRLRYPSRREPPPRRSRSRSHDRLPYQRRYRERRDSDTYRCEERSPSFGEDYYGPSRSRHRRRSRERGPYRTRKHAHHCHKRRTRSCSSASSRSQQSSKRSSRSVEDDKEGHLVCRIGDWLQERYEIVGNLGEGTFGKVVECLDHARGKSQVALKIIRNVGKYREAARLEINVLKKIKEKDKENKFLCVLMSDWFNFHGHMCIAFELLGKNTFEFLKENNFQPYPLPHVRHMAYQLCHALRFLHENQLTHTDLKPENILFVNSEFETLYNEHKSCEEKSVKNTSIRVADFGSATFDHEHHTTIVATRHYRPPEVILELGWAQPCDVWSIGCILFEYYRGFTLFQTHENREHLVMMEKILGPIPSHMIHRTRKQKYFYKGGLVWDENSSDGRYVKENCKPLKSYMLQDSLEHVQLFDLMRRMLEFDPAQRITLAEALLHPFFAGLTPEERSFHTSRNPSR
Chain of Dual specificity protein kinase CLK2 (P49760 whole entry): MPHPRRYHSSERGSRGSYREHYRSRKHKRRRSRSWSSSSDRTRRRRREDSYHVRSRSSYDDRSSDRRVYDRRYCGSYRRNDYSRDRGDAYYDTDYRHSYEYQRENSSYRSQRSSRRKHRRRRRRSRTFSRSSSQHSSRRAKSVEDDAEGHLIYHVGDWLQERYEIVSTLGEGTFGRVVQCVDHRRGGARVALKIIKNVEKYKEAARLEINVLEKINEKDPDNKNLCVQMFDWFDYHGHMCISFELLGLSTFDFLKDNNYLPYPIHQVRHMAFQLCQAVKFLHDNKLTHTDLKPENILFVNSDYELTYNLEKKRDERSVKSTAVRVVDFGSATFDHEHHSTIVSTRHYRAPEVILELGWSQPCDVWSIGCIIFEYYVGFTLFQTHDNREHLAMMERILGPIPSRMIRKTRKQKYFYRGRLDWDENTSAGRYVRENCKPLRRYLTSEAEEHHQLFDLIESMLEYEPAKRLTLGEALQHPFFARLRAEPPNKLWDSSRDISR
Chain of Cyclin-dependent kinase 5 (Q00535 whole entry): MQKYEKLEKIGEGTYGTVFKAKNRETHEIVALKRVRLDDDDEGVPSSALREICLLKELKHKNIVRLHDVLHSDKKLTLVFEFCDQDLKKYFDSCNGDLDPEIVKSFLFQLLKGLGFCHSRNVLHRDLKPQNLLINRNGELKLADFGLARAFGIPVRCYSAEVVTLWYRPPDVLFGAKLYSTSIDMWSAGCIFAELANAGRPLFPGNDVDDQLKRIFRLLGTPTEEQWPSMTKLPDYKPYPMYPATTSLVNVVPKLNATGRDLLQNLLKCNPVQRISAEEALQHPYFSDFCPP
Chain of Dual specificity protein kinase CLK1 (P49759 whole entry): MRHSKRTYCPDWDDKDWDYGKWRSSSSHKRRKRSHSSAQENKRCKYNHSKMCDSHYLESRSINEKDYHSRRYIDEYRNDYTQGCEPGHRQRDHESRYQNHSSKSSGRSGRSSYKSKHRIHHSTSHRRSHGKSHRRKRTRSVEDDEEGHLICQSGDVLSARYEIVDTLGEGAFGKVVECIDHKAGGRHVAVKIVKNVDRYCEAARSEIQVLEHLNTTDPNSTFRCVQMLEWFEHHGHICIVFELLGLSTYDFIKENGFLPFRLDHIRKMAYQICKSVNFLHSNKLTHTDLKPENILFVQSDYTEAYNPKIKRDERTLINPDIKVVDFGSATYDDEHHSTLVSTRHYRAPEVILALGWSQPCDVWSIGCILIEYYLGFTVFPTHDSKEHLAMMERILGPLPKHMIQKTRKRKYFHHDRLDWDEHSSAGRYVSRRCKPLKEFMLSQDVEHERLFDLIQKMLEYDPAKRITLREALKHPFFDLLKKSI
Chain of Dual specificity tyrosine-phosphorylation-regulated kinase 1B (Q9Y463 whole entry): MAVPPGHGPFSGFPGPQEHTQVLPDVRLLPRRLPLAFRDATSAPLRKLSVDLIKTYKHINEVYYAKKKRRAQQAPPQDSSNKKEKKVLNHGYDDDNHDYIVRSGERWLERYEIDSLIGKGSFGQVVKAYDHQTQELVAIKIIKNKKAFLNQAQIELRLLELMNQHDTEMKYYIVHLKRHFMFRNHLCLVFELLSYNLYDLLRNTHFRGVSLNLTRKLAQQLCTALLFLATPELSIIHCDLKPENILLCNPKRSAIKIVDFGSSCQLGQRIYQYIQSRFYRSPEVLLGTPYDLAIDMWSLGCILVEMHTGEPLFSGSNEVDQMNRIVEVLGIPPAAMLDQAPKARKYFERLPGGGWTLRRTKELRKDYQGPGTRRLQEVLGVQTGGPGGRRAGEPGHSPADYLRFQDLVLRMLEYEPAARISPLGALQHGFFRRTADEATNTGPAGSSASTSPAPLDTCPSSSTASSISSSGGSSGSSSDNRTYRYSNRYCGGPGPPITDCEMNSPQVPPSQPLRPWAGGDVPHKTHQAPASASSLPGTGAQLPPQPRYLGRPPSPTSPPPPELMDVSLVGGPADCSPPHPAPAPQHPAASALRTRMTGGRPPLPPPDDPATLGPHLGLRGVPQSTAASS
Chain of Dual specificity protein kinase CLK4 (Q9HAZ1 whole entry): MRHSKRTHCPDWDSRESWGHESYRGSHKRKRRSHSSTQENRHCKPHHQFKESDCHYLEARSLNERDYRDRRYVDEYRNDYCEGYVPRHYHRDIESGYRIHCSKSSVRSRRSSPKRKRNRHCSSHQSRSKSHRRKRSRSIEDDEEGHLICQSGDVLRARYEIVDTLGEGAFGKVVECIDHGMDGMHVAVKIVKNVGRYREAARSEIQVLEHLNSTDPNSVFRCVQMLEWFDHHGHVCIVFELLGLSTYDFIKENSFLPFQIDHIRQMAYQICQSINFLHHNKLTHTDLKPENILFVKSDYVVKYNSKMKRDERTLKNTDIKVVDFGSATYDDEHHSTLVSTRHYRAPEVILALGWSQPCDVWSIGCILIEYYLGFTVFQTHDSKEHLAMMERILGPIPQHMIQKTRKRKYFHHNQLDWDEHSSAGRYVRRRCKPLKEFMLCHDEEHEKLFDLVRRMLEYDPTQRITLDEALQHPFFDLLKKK

With `COC[C@@H](CC(C)C)NC1=N/C(=C\c2ccc3ncsc3c2)C(=O)N1C1CC1`, the IC50 (usually the concentration needed to halve the response being measured) in experiment [1] is 0.506 µM; in experiment [2], more than 10 µM; against Casein kinase I it was more than 10 µM; in [3] it was 2.86 µM; in [4] it was 8.988 µM; in experiment [5] it was 1.26 µM. Besides, the IC50 in experiment [6] came to 0.842 µM; in [7], 0.24 µM; in experiment [8], 0.643 µM.

For `COC[C@@H](CC(C)C)NC1=N/C(=C\c2ccc3ncsc3n2)C(=O)N1`, the IC50 was 0.0365 µM in [1]; more than 10 µM in experiment [2]; 4.36 µM in experiment [9]; more than 10 µM against Casein kinase I; 4.78 µM in experiment [3]; 4.27 µM in experiment [4]. Further, the IC50 in experiment [10] was determined as 0.0336 µM; in experiment [5] it was 0.219 µM; in experiment [6], 1.38 µM; in [11], 0.085 µM; in experiment [7], 0.0264 µM.

Regarding `COC[C@@H](CC(C)C)NC1=N/C(=C\c2cc3scnc3cn2)C(=O)N1`, the IC50 (in [2]; against Casein kinase I; in [3]; in experiment [4]; in experiment [10]; in experiment [5]) was more than 10 µM each time. For the same compound, the concentration for half-maximal inhibition (IC50) in experiment [6] is more than 10 µM; in [7], 6.49 µM; in [8], more than 10 µM.

On to `COC[C@@H](CC(C)C)NC1=N/C(=C\c2ccc3ncsc3c2)C(=O)N1C1CCCC1`, for which the IC50 in experiment [1] is more than 10 µM; in experiment [2] it was more than 10 µM; in experiment [9], 0.774 µM; against Casein kinase I, more than 10 µM; in experiment [3], more than 10 µM; in experiment [4], more than 10 µM. In addition, the IC50 was 2.45 µM in experiment [10]; 5.32 µM in experiment [5]; more than 10 µM in experiment [6]; more than 10 µM in [11]; 1.01 µM in [7]; 6.47 µM in experiment [8].

With `COC[C@@H](CC(C)C)NC1=N/C(=C\c2cnc3ncsc3c2)C(=O)N1`, the IC50 (in [2]; in experiment [9]; at Casein kinase I; in [3]; in experiment [4]; in experiment [10]) was more than 10 µM in each case. For the same compound, the concentration for half-maximal inhibition (IC50) in experiment [5], in experiment [7] and in experiment [8] was more than 10 µM in each case.

Take `COC[C@@H](CC(C)C)NC1=N/C(=C\c2ccc3ncsc3c2)C(=O)N1C1CCCCC1`: the IC50 in experiment [2] is more than 10 µM; in experiment [9] it was 3.97 µM; against Casein kinase I it was more than 10 µM; in [3] it was more than 10 µM; in experiment [4], more than 10 µM; in experiment [10], more than 10 µM. In addition, the IC50 in experiment [5] is more than 10 µM; in [11] it was more than 10 µM; in experiment [7], 4.91 µM; in [8], more than 10 µM.

Consider `CC(C)C[C@H](CO)NC1=N/C(=C\c2ccc3ncsc3c2)C(=O)N1`, for which the IC50 in experiment [2] is more than 10 µM; in experiment [9], 0.635 µM; at Casein kinase I, more than 10 µM; in experiment [3], 0.51 µM; in experiment [4] it was 2.32 µM; in experiment [10] it was 0.0139 µM. For the same compound, the IC50 in experiment [5] is 0.461 µM; in experiment [6], 0.31 µM.

In the case of `CC(C)C[C@@H](CO)NC1=N/C(=C\c2ccc3ncsc3c2)C(=O)N1`, the IC50 in [2] was more than 10 µM; in experiment [9], 2.84 µM; against Casein kinase I, more than 10 µM; in experiment [3], 5.18 µM; in experiment [4] it was 8.165 µM; in [10], 0.0387 µM. Also, the values for the half-maximal inhibitory concentration (IC50) in [5] and in experiment [6] were 0.474 µM and 0.493 µM, respectively.

`COC[C@@H](CC(C)C)NC1=N/C(=C\c2ccc3ncsc3c2)C(=O)N1C1CCC1`: the IC50 was 5.62 µM in experiment [1]; more than 10 µM in experiment [2]; 0.581 µM in experiment [9]; more than 10 µM on Casein kinase I; more than 10 µM in experiment [4]; 1.42 µM in experiment [10]. The IC50 in experiment [5] came out at 4.69 µM; in experiment [6], 5.32 µM; in experiment [7] it was 1.21 µM.

Source of the values: ChEMBL document CHEMBL5375979, “Chemical, Biochemical, Cellular, and Physiological Characterization of Leucettinib-21, a Down Syndrome and Alzheimer's Disease Drug Candidate” (J Med Chem, 2023).
